Assay: cn = amount concentration of the nth substance listed, in mol/dm3
Settings: 101 kPa, Liquid, Direct current cell with electrodes

CCCCCCCCCCCC[N+](C)(C)C.[Br-] [dodecyltrimethylammonium bromide] + O
electrical conductivity [S/m]
Settings | 288.15 K | 293.15 K | 298.15 K | 303.15 K | 308.15 K | 313.15 K | 318.15 K
c1 = 0.001961 | 0.0157 | 0.0175 | 0.0196 | 0.0218 | 0.0238 | 0.0261 | 0.0279
c1 = 0.003846 | 0.0294 | 0.0332 | 0.0372 | 0.0411 | 0.045 | 0.0494 | 0.0531
c1 = 0.00566 | 0.0421 | 0.0478 | 0.0533 | 0.0592 | 0.0647 | 0.0711 | 0.076
c1 = 0.007407 | 0.0542 | 0.0614 | 0.0689 | 0.0762 | 0.0833 | 0.0914 | 0.0969
c1 = 0.009091 | 0.0654 | 0.0743 | 0.0833 | 0.0921 | 0.1007 | 0.1109 | 0.119
c1 = 0.01071 | 0.0762 | 0.0865 | 0.0964 | 0.107 | 0.117 | 0.129 | 0.139
c1 = 0.01228 | 0.0863 | 0.098 | 0.11 | 0.1218 | 0.1328 | 0.146 | 0.158
c1 = 0.01379 | 0.0954 | 0.109 | 0.1222 | 0.136 | 0.148 | 0.1623 | 0.175
c1 = 0.01525 | 0.105 | 0.119 | 0.1337 | 0.148 | 0.162 | 0.178 | 0.1919
c1 = 0.01667 | 0.1103 | 0.125 | 0.1405 | 0.157 | 0.1727 | 0.1907 | 0.206
c1 = 0.01758 | 0.1125 | 0.128 | 0.1433 | 0.1605 | 0.177 | 0.197 | 0.215
c1 = 0.01848 | 0.1143 | 0.13 | 0.146 | 0.1634 | 0.1807 | 0.201 | 0.222
c1 = 0.01936 | 0.116 | 0.1315 | 0.148 | 0.166 | 0.1837 | 0.205 | 0.226
c1 = 0.02021 | 0.117 | 0.1332 | 0.1501 | 0.168 | 0.187 | 0.209 | 0.23
c1 = 0.02105 | 0.119 | 0.135 | 0.1521 | 0.17 | 0.19 | 0.212 | 0.234
c1 = 0.02188 | 0.1203 | 0.137 | 0.154 | 0.172 | 0.1922 | 0.215 | 0.238
c1 = 0.02268 | 0.1216 | 0.138 | 0.156 | 0.1741 | 0.195 | 0.218 | 0.242
c1 = 0.02347 | 0.1229 | 0.14 | 0.158 | 0.176 | 0.198 | 0.22 | 0.246
c1 = 0.02424 | 0.1242 | 0.1411 | 0.159 | 0.178 | 0.2 | 0.223 | 0.249
c1 = 0.025 | 0.126 | 0.1425 | 0.161 | 0.1805 | 0.203 | 0.226 | 0.252
c1 = 0.02611 | 0.127 | 0.145 | 0.1636 | 0.1831 | 0.206 | 0.23 | 0.258
c1 = 0.02718 | 0.129 | 0.147 | 0.166 | 0.186 | 0.21 | 0.234 | 0.263
c1 = 0.02823 | 0.131 | 0.149 | 0.169 | 0.189 | 0.213 | 0.238 | 0.268
c1 = 0.02925 | 0.1327 | 0.151 | 0.171 | 0.1912 | 0.217 | 0.242 | 0.272
c1 = 0.03023 | 0.1344 | 0.1529 | 0.1733 | 0.1937 | 0.22 | 0.246 | 0.277

From the NIST ThermoML archive (doi:10.1021/je100598x)
